Results taken from PMC12110821, “Polyphyllin I Inhibits the Metastasis of Cervical Cancer Through the Regulation of the β-Catenin Signaling Pathway” (International Journal of Molecular Sciences, 2025).

Biological target: T1, β-catenin (Homo sapiens, UniProt P35222)
T1 construct: gene CTNNB1; β-catenin protein (11279-H20B, Sinobiological)
T1 sequence (P35222 2-781): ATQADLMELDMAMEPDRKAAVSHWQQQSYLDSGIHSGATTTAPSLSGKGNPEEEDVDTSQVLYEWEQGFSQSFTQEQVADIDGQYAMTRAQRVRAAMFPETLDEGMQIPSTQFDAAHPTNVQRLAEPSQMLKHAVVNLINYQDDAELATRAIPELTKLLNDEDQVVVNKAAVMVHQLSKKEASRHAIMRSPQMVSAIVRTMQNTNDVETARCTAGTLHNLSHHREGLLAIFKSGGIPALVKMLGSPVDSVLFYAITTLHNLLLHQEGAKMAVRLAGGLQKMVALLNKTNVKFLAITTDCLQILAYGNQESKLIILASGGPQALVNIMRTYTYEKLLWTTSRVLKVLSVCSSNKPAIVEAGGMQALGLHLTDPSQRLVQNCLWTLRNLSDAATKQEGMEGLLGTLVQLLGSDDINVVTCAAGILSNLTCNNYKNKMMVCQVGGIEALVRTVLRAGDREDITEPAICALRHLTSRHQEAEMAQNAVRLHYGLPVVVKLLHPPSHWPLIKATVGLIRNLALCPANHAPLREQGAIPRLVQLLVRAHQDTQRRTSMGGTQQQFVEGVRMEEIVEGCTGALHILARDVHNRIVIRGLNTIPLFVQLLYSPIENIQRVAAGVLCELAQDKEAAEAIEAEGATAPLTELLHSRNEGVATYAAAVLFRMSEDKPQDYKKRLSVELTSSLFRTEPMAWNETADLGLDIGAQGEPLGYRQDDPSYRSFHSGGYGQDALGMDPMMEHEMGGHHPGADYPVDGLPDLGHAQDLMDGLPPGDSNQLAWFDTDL
Assay: SPR (Biacore T200, CM5 chip, amine-coupled β-catenin); supported by CETSA in HO-8910PM lysate
Assay type: binding

## C[C@@H]1CC[C@@]2(OC1)O[C@H]1C[C@H]3[C@@H]4CC=C5C[C@@H](O[C@@H]6O[C@H](CO)[C@@H](O[C@@H]7O[C@@H](CO)[C@H](O)[C@H]7O)[C@H](O)[C@H]6O[C@@H]6O[C@@H](C)[C@H](O)[C@@H](O)[C@H]6O)CC[C@]5(C)[C@H]4CC[C@]3(C)[C@H]1[C@@H]2C [PPI, Polyphyllin I]
  Kd: 2200 nM
